Measured values published in US5744476A, “Dopamine D1 agonists for the treatment of dementia” (Interneuron Pharmaceuticals, Inc., priority 1994, dated 1998).
“Also recorded” adds a separate entry of the source. Like-named read-outs stand apart in the source and are kept apart here.

Legend:
adenylate cyclase = details: cited from earlier work
6-OHDA-lesioned rats = assay: Rotational behavior in 6-OHDA-lesioned rats (rodent model of PD); type: in vivo, rat; details: 10 mg/kg
Description: (§1) The test protocol followed is disclosed in Ungerstedt, Acta Physiol. Scand. 82 Supp. 367, p. 49-68 (1971). […] This activity may reside in one or more optical isomers of such a metabolite.

[1] = Concentration of DHX in brain and plasma over time; type: in vivo, rat; details: 10 mg/kg
Description: as §1

monkeys = details: cited from earlier work
striatal acetylcholine = assay: In vivo microdialysis, striatal ACh release; design: species or system Male Sprague-Dawley rats; details: for dialysate concentrations of striatal ACh / duration of increase of dialysate concentrations of striatal ACh: i.p.; for duration of increase of dialysate concentrations of striatal ACh: post-injection; for stimulatory effect of DHX on striatal ACh release (blockade): low dose in combination with DHX
Description: (§2) The in vivo microdialysis technique is a method for evaluating the effects of drugs on brain neurotransmitter systems by monitoring the extracellular concentration of neurotransmitters and metabolites in awake freely-moving animals. Probes are implanted directly into the brain of rats and serve to continuously sample the extracellular fluid in the vicinity of the probe. Samples containing the dialyzed extracellular fluid are collected at the outlet of the perfusion system and analyzed for content of brain neurotransmitters and metabolites by high-performance liquid chromatography coupled with electrochemical detection (HPLC-EC).
Male Sprague-Dawley rats weighing 250-350 g were group housed (n=3 per cage) in a temperature-controlled room (23±2° C.) on a 14/10 hr light cycle with free access to food and water. After the surgical procedure, animals were placed in individual cages.
The surgical procedure involved the implantation and fixation of a probe holder/guide cannula to the skull of anesthetized rats. The guide cannula was the attachment site for the rigid concentric microdialysis probes which were implanted into the awake, fully-recovered rat at the onset of the experiment. […] For placement of the guide cannulae, rats were anesthetized with ketamine:xylazine (87:13 mg/kg), shaved and placed in a stereotaxic frame (Narashige Instruments). An incision was made to expose the skull and a small hole was drilled to expose the dura mater for placement of the guide. Guide cannulae were implanted in the striatum according to the following stereotaxic coordinates with reference to bregma: AP -+1.5 mm, L -+2.6 mm and V to dura -2.5 mm (Paxinos and Watson, The rat brain in stereotaxic coordinates, 2nd. ed., Academic Press, London, 1986). The microdialysis probe extended 3.0 mm beyond the tip of the guide cannula which yielded a final ventral placement of 5.5 mm below the dura. The coordinates for placement of the guide into frontal cortex were: AP -+3.0 mm, L -+2.8 mm and V to dura 0 mm, with the probe extending 3.0 mm below the dura. Guide cannulae were fixed to the skull with dental acrylic and anchor screws and a dummy cannula was inserted into each guide for the recovery period. Animals were returned to their home cage and allowed to recover from surgery for 24-48 hrs.
For each experiment, the dialysis probe was connected to a microinfusion pump (CMA-100; Bioanalytical Systems (BAS); W. Lafayette, Ind.) equipped with a liquid switch (CMA-110; BAS) via low dead volume fused-silica tubing (I.D.=75 um; O.D.=150 um). At the time of experiment, the dummy cannula was removed and the probe was inserted through the guide into the conscious animal under light restraint.
The probe was perfused continuously with artificial CSF (composition in Mm: 121 NaCl, 3.5 KCl, 1.2 CaCl2, 1.2 MgCl2, 1.0 NaH2 PO4, 25 NaHCO3, and 0.001 neostigmine) at a flow rate of 1.5 ul/min. Dialysate samples were collected every 20 min (total sample volume=30 μl). A 20 ul aliquot was analyzed immediately for acetylcholine (ACh) content by high-performance liquid chromatography with electrochemical detection (HPLC-EC) (see below for details). A baseline period of at least one hour was allowed prior to invoking any experimental manipulations. […] Sample collection proceeded for a minimum of 3 hrs following drug administration. Upon completion of the experiment, animals were sacrificed by decapitation and brains examined grossly to verify probe placement.
(§3) DHX and SKF 81297, another D1 agonist (Andersen et al., Eur J Pharmacol 188:335, 1990), were administered ip after a stable baseline of ACh release was established in each animal. […] The effects of DHX on ACh release were evaluated in two brain regions associated with cognition (striatum, frontal cortex).

[2] = tested on: MPTP-induced parkinsonism model in primates; details: cited from earlier work
[3] = tested on: acetylcholine release in the frontal cortex; assay: In vivo microdialysis, frontal cortex ACh release; design: species or system Male Sprague-Dawley rats
Description: as §2, with “(HPLC-EC). […]” for “(HPLC-EC).”
The probe was perfused continuously with artificial CSF (composition in Mm: 121 NaCl, 3.5 KCl, 1.2 CaCl2, 1.2 MgCl2, 1.0 NaH2 PO4, 25 NaHCO3, and 0.001 neostigmine) at a flow rate of 1.5 ul/min. […] A 20 ul aliquot was analyzed immediately for acetylcholine (ACh) content by high-performance liquid chromatography with electrochemical detection (HPLC-EC) (see below for details). […]
as §3, with “cortex). […]” for “cortex).”

dopamine D1 receptor = details: cited from earlier work
[4] = tested on: scopolamine-induced deficits (rats); assay: Passive avoidance in rats, scopolamine-induced amnesia (step-through latency); details: scopolamine 3.0 mg/kg
cortical ACh release = details: in vivo; cited from earlier work
animals = details: cited from earlier work; for memory-improving effect of nigrostriatal self-stimulation or of d-amphetamine (blockade): in vivo
striatal ACh output = details: cited from earlier work
[5] = tested on: behavioral effects previously associated with D2 antagonists; details: in vivo; cited from earlier work
[6] = tested on: CADs due to lesions of the medial projection of the basal forebrain to the cortex; details: cited from earlier work
rodents = details: cited from earlier work; for retention of win-stay and win-shift tasks: Packard and White, 1989
[7] = tested on: choice accuracy deficits (CADS) due to scopolamine; details: radial arm maze; cited from earlier work
PD patients = details: clinical; cited from earlier work

For `Oc1cc2c(cc1O)[C@@H]1c3ccccc3CN[C@H]1CC2` (relative stereo) [DHX, trans-10,11-dihydroxy-5,6,6a,7,8,12b-hexahydrobenzo[a]phenanthridine], the “potency in the stimulation of adenylate cyclase versus dopamine” value (adenylate cyclase; versus dopamine) is listed as “approximately 70 times more potent”, the “efficacy in the stimulation of adenylate cyclase versus dopamine” value (adenylate cyclase; versus dopamine, in words) is listed as “as efficacious” and the “biological activity in a rodent model of PD (rotational behavior), persistence” value (6-OHDA-lesioned rats) is listed as “persists long after the levels of DHX in the brain and plasma have diminished”. The “levels of DHX in the brain and plasma” value [1] was “diminished”, the spatial working memory (monkeys; young, intact monkeys) was “produced improvements in young, intact monkeys” and the “dialysate concentrations of striatal ACh” value (striatal acetylcholine; 3.0 mg/kg) was “increase in dialysate concentration of striatal acetylcholine; also recorded: increase dialysate concentrations of striatal ACh”. The “duration of increase of dialysate concentrations of striatal ACh” value (striatal acetylcholine; 3.0 mg/kg) was “at least 180 min”, the “dialysate concentrations of striatal ACh” value (striatal acetylcholine; 10 mg/kg) was “increase in dialysate concentration of striatal acetylcholine; also recorded: increase dialysate concentrations of striatal ACh” and the “duration of increase of dialysate concentrations of striatal ACh” value (striatal acetylcholine; 10 mg/kg) was “at least 180 min”. For the same molecule, the “striatal ACh release” value (striatal acetylcholine; 17.5 mg/kg) was “appears to be less than that evoked by lower doses”, the eye blink rates ([2]; 0.3 to 0.93 mg/kg, im) was “increasing eye blink rates” and the “parkinsonian signs (tremor, motor freezing, abnormal posture, rigidity, bradykinesia)” value ([2]; 0.3 to 0.93 mg/kg, im) was “dramatically attenuated parkinsonian signs”. The “activity in the MPTP-induced parkinsonism model” value ([2]; primates) was “potent activity in the MPTP-induced parkinsonism model in primates”, the “ACh release in the frontal cortex” value ([3]; injection of DHX) was “increase in acetylcholine release in the frontal cortex; also recorded: increased ACh release in the frontal cortex” and the “affinity for D1 receptor” value (dopamine D1 receptor; D1) was “nanomolar affinity”. For the same molecule, the “selectivity for the D1 over the D2 receptor” value (dopamine D1 receptor) was 12- to 60 fold, the step-through latency ([4]; DHX 0.1 mg/kg) was “increased step-through latency, however, these increases were not statistically-significant” and the “step-through latency (reversal of scopolamine-induced deficits)” value ([4]; DHX 0.3 mg/kg, 10 min prior to training) was “significantly improve scopolamine-induced deficits; also recorded: significantly improved scopolamine-induced deficits in step-through latency”. For the same molecule, the step-through latency ([4]; DHX 1.0 mg/kg) was “increased step-through latency, however, these increases were not statistically-significant”.

In the case of `CN1Cc2ccccc2C2c3cccc4[nH]cc(c34)CC21` (single isomer, unassigned) [CY 208-243], the “cortical ACh release” value (cortical ACh release) is given as “significantly increased cortical ACh release”.

In the case of `NCCc1cc(O)c(O)cc1O` [6-OHDA, 6-hydroxydopamine], the “learning tasks after lesion of the nigrostriatal tract” value (animals; avoidance conditioning, Morris water maze) is listed as “impair a variety of learning tasks” and the “memory-improving effect of nigrostriatal self-stimulation or of d-amphetamine (blockade)” value (animals) is listed as “blocked”.

For `Oc1cc2c(cc1O)[C@@H](c1ccccc1)CNCC2` [(+)-SKF 38393], the “increase of striatal ACh output” value (striatal ACh output; systemic administration) is listed as 75%.

In the case of `CCCN1CCO[C@@H]2c3cc(O)ccc3CC[C@H]21` [PHNO], the “cortical ACh release” value (cortical ACh release) is given as “no effect”.

In the case of `CN1CCc2cc(Cl)c(O)cc2[C@@H](c2ccccc2)C1` [SCH23390], the “stimulatory effect of DHX on striatal ACh release (blockade)” value (striatal acetylcholine) is listed as “completely block the stimulatory effect of DHX on striatal ACh release”, the “stimulatory effect of DHX on striatal ACh release (blockade)” value (striatal acetylcholine; listed as SCH 23390) is listed as “completely block the stimulatory effect of administering DHX on striatal acetylcholine release” and the behavioral effects [5] is listed as “mimic some of the behavioral effects previously associated with D2 antagonists”. The “stimulatory effect of DHX on ACh release in the frontal cortex (blockade)” value ([3]; low dose in combination with DHX, listed as SCH 23390) was “completely block the stimulatory effect of administering DHX on acetylcholine release in the frontal cortex; also recorded: sensitive to antagonism by SCH 23390”, the “effect of D1 agonist on striatal ACh output (blockade)” value (striatal ACh output; 0.3 mg/kg) was “blocked” and the “D1 agonist-induced increase in cortical ACh release (blockade)” value (cortical ACh release) was “blocked selectively”. The “choice accuracy deficits due to lesions” value [6] was “reversed CADs due to lesions of the medial projection of the basal forebrain to the cortex”.

In the case of `Oc1cc2c(cc1O)C(c1ccccc1)CNCC2` (centres unmarked) [SKF38393], the “efficacy in stimulating adenylate cyclase relative to dopamine” value (adenylate cyclase; as efficacious as dopamine) is given as 30-50%, the spatial working memory (monkeys; aged and reserpine-treated monkeys) is given as “improved spatial working memory in aged and reserpine-treated monkeys” and the “retention of win-stay and win-shift tasks” value (rodents) is given as “but not SKF38393, improved retention of the tasks”. The “choice accuracy deficits due to scopolamine” value [7] was “alleviated choice accuracy deficits (CADS) due to scopolamine” and the “selectivity for the D1 over the D2 receptor” value (dopamine D1 receptor) was “greater than 10 fold”.

In the case of `Oc1cc2c(c(Cl)c1O)CCNCC2c1ccccc1` (centres unmarked) [SKF 81297], the “dialysate concentrations of striatal ACh” value (striatal acetylcholine; 3.0 mg/kg) is reported as “increase in dialysate concentration of striatal acetylcholine; also recorded: elevated striatal ACh release”.

In the case of `CN1[C@@H]2C[C@@H](OC(=O)[C@H](CO)c3ccccc3)C[C@H]1[C@@H]1O[C@@H]12` [Scopolamine], the “acquisition of the passive avoidance task (deficit)” value ([4]; ip, 30 min prior to training) is reported as “severe deficit in the acquisition of the passive avoidance task”.

In the case of `CC(C)C[C@H]1C(=O)N2CCC[C@H]2[C@]2(O)O[C@](NC(=O)[C@@H]3C=C4c5cccc6[nH]c(Br)c(c56)C[C@H]4N(C)C3)(C(C)C)C(=O)N12` [bromocriptine], the “efficacy in the treatment of PD” value (PD patients) is given as “either limited efficacy relative to levodopa or limited long-term efficacy”.

For `C[C@H](N)Cc1ccccc1` [d-amphetamine], the memory improvement (animals; indirect dopamine agonist) is given as “memory-improving effects”, the “retention of win-stay and win-shift tasks” value (rodents) is given as “improved retention of the tasks” and the win-stay acquisition (rodents; post-training intracaudate injection) is given as “improved win-stay acquisition”.

For `N[C@@H](Cc1ccc(O)c(O)c1)C(=O)O` [levodopa], the “efficacy in the treatment of PD” value (PD patients) is listed as “allowed PD patients to reach normal life expectancies”.

In the case of `CCCN1C[C@H](CSC)C[C@@H]2c3cccc4[nH]cc(c34)C[C@H]21` [pergolide], the “efficacy in the treatment of PD” value (PD patients) is listed as “either limited efficacy relative to levodopa or limited long-term efficacy”.

In the case of `O=c1[nH]c2ccccc2n1C1CCN(CCCC(c2ccc(F)cc2)c2ccc(F)cc2)CC1` [pimozide], the “memory-improving effect of nigrostriatal self-stimulation or of d-amphetamine (blockade)” value (animals) is given as “blocked”.

With `CCCN1CCC[C@@H]2Cc3n[nH]cc3C[C@H]21` [quinpirole] the “striatal ACh release” value (striatal acetylcholine; 2.0 mg/kg, data not shown) was “decreases striatal ACh release”.

In the case of `CCN1CCC[C@H]1CNC(=O)c1c(O)c(Cl)cc(Cl)c1OC` [raclopride], the “effect of D1 agonist on striatal ACh output (potentiation)” value (striatal ACh output; administered 60 min after SKF 38393) is listed as “potentiated”.
